Where two headings read alike, the source gives them in different places.
Legend:
[1] = test system: novel biosensor systems in E. coli and in S. typhimurium strains; assay: Subject SOS promoter-lux systems (general statements); conditions: for result in the novel systems according to the invention: agents known to give false negative results in the SOS chromotest and the Ames test
[2] = test system: S. typhimurium TA98 containing pMOL1067
[3] = test system: S. typhimurium TA104 containing pMOL1069
[4] = test system: S. typhimurium TA104 containing pMOL1067
[5] = test system: S. typhimurium TA104 containing pMOL1068
[6] = test system: S. typhimurium TA104 containing pMOL890
E. coli (sfiA-lacZ) = conditions: cited from earlier work
[7] = test system: S. typhimurium TA104 containing pMOL1066
[8] = test system: S. typhimurium TA98 containing pMOL1068
S. typhimurium = conditions: cited from earlier work
[9] = test system: TA 98 and TA104 strains containing pMOL1067 or pMOL1068
[10] = test system: TA98 and TA104 strains containing pMOL890, pMOL1067 or pMOL1068; assay: Test with the TA98 and TA104 strains containing pMOL890, pMOL1067 or pMOL1068
[11] = test system: S. typhimurium TA98 containing pMOL890
TA104 (pMOL890) = conditions: M9 medium saturated with 0.1% of the PAH, degrading strain, samples every 3 days
[12] = TA 98 and TA104 strains containing pMOL1067 or pMOL1068

## CO[C@@]12[C@H](COC(N)=O)C3=C(C(=O)C(C)=C(N)C3=O)N1C[C@@H]1N[C@@H]12 [Mitomycin C]
[1]; subject systems
  level that can be detected: 7 ng/mL

## OO [H2O2, hydrogen peroxide]
[2]; TA98 pMOL1067
  MINIMAL DETECTED CONCENTRATION (MDC): 1.5 nmol/assay
[3]; TA104 pMOL1069
  MINIMAL DETECTED CONCENTRATION (MDC): 5.9 nmol/assay
[4]; TA104 pMOL1067
  MINIMAL DETECTED CONCENTRATION (MDC): 11.8 nmol/assay
[5]; TA104 pMOL1068
  MINIMAL DETECTED CONCENTRATION (MDC): 11.8 nmol/assay
[6]; TA104 pMOL890
  MINIMAL DETECTED CONCENTRATION (MDC): 3.8 nmol/assay
E. coli (sfiA-lacZ); SOS chromotest, Table 3
  SOS (result): pos
E. coli (sfiA-lacZ); SOS chromotest, literature values
  MINIMAL DETECTED CONCENTRATION (MDC): 23 nmol/assay
[7]; TA104 pMOL1066
  MINIMAL DETECTED CONCENTRATION (MDC): 11.8 nmol/assay
[8]; TA98 pMOL1068
  MINIMAL DETECTED CONCENTRATION (MDC): 1.5 nmol/assay
S. typhimurium
  AMES (result): neg
  MINIMAL DETECTED CONCENTRATION (MDC): neg
  result in the Ames test: False-negative
[9]; [12]
  OUTCOME (genotoxicity, final outcome): pos
[10]
  result in the test (genotoxicity): positive
[1]
  result in the novel systems according to the invention: positive
[11]; TA98 pMOL890
  MINIMAL DETECTED CONCENTRATION (MDC): 8.5 nmol/assay

## c1ccc2c(c1)Cc1ccccc1-2 [fluorene]
TA104 (pMOL890)
  genotoxicity during bacterial degradation of the PAH: no significant increase in genotoxicity

## O=P1(N(CCCl)CCCl)NCCCO1 (centres unmarked) [Cyclophosphamide]
E. coli (sfiA-lacZ)
  SOS (result): neg
S. typhimurium
  AMES (result): pos
[9]
  OUTCOME (genotoxicity, final outcome): neg
[10]
  result in the test (genotoxicity): negative

## O=C(N/N=C/c1ccc([N+](=O)[O-])o1)c1ccc(O)cc1 [Nifuroxazide]
S. typhimurium; Ames test, Table 3
  AMES (result): pos
[9]; [12]
  OUTCOME (genotoxicity, final outcome): pos

## c1ccc2c(c1)-c1cccc3cccc-2c13 [Fluoranthene]
E. coli (sfiA-lacZ)
  SOS (result): pos
TA104 (pMOL890)
  genotoxicity during bacterial degradation of the PAH: an increase of genotoxicity
S. typhimurium
  AMES (result): pos
[9]
  OUTCOME (genotoxicity, final outcome): pos

## c1ccc2c(c1)ccc1ccccc12 [Phenanthrene]
E. coli (sfiA-lacZ); SOS chromotest, Table 3
  SOS (result): pos
TA104 (pMOL890)
  genotoxicity during bacterial degradation of the PAH: an increase followed by a decrease in genotoxicity
S. typhimurium; Ames test, Table 3
  AMES (result): neg
S. typhimurium; text b127
  result in the Ames test: False-negative
[9]; [12]
  OUTCOME (genotoxicity, final outcome): pos
[10]
  result in the test (genotoxicity): positive
[1]
  result in the novel systems according to the invention: positive

## CNC(=O)Oc1cccc2ccccc12 [Carbaryl]
E. coli (sfiA-lacZ)
  SOS (result): pos

## Cl[C@H]1[C@H](Cl)[C@@H](Cl)[C@@H](Cl)[C@H](Cl)[C@H]1Cl [Lindane]
E. coli (sfiA-lacZ); SOS chromotest, Table 3
  SOS (result): neg
S. typhimurium
  AMES (result): neg
[9]; [12]
  OUTCOME (genotoxicity, final outcome): neg

## S=C1NCCN1 [Ethylenethiourea]
S. typhimurium
  AMES (result): pos

## CCN(CC)N=O [N-Nitrosodiethylamine]
E. coli (sfiA-lacZ); SOS chromotest, Table 3
  SOS (result): pos
S. typhimurium
  AMES (result): pos
[9]; [12]
  OUTCOME (genotoxicity, final outcome): pos

## [Cl-].[Cl-].[Zn+2] [ZnCl2]
E. coli (sfiA-lacZ)
  SOS (result): neg
S. typhimurium
  AMES (result): neg
[9]
  OUTCOME (genotoxicity, final outcome): neg

## COc1ccc2nc3cc(Cl)ccc3c(NCCCNCCCl)c2c1 [ICR191]
[2]; Salmonella typhimurium
  MINIMAL DETECTED CONCENTRATION (MDC): 0.28 nmol/assay
[3]; Salmonella typhimurium
  MINIMAL DETECTED CONCENTRATION (MDC): 1.1 nmol/assay
[4]; Salmonella typhimurium
  MINIMAL DETECTED CONCENTRATION (MDC): 0.55 nmol/assay
[5]; Salmonella typhimurium
  MINIMAL DETECTED CONCENTRATION (MDC): 0.55 nmol/assay
[6]; Salmonella typhimurium
  MINIMAL DETECTED CONCENTRATION (MDC): 0.14 nmol/assay
E. coli (sfiA-lacZ)
  MINIMAL DETECTED CONCENTRATION (MDC): 0.13 nmol/assay
  SOS (result): pos
[7]; Salmonella typhimurium
  MINIMAL DETECTED CONCENTRATION (MDC): 1.1 nmol/assay
[8]; Salmonella typhimurium
  MINIMAL DETECTED CONCENTRATION (MDC): 0.14 nmol/assay
S. typhimurium
  AMES (result): pos
  MINIMAL DETECTED CONCENTRATION (MDC): pos
[9]
  OUTCOME (genotoxicity, final outcome): pos
[11]; Salmonella typhimurium
  MINIMAL DETECTED CONCENTRATION (MDC): 0.14 nmol/assay

## c1ccc2cc3ccccc3cc2c1 [Anthracene]
E. coli (sfiA-lacZ); SOS chromotest, Table 3
  SOS (result): neg
S. typhimurium
  AMES (result): neg
[9]; [12]
  OUTCOME (genotoxicity, final outcome): neg

## CCOS(C)(=O)=O [Ethylmethanesulphonate]
E. coli (sfiA-lacZ)
  SOS (result): pos
S. typhimurium
  AMES (result): pos
[9]
  OUTCOME (genotoxicity, final outcome): pos

Reference: patent US6521751B1, “Recombinant nucleic acid sequences and methods for determining both genotoxicity and mutagenicity of a sample and the kinetics of the genotoxicity” (Vlaamse Instelling voor Technologisch Onderzoek (VITO), priority 1998, dated 2003)
